Reference: the supplement of paper PMC10307832

How the values were obtained:
Experiment in all cases: relative viability (nuclei count vs DMSO), 5 days (fraction); higher = more cells survive
BAM7 + Bortezomib = compound: CCOC1=CC=CC=C1N=NC2=C(NN(C2=O)C3=NC(=CS3)C4=CC=CC=C4)C [BAM7] + CC(C)C[C@H](NC(=O)[C@H](Cc1ccccc1)NC(=O)c1cnccn1)B(O)O [Bortezomib] (partner 0.002 µM)
Procedure, shortened: (§1)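 Medians of duplicate plates are given as relative viability. That measure is the nuclei count in treated wells divided by the count in vehicle wells. Counts were taken on 4× images of lung cancer cell lines in 1536-well plates, 5 days after pin-tool dosing the day after seeding with one drug alone or a fixed anchor-drug dose plus five library-drug doses (not always all listed) in √10 steps.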

BAM7 + Vorinostat = compound: CCOC1=CC=CC=C1N=NC2=C(NN(C2=O)C3=NC(=CS3)C4=CC=CC=C4)C [BAM7] + O=C(CCCCCCC(=O)Nc1ccccc1)NO [Vorinostat] (partner 1 µM)
Procedure, shortened: as §1

[1] = compound: CCn1c(-c2nonc2N)nc2c(C#CC(C)(C)O)ncc(OC[C@H]3CCCNC3)c21 + N=C(N)NC(=N)NCCc1ccccc1 [Phenformin] (partner 250 µM)
Procedure, shortened: as §1

[2] = compound: CCn1c(-c2nonc2N)nc2c(C#CC(C)(C)O)ncc(OC[C@H]3CCCNC3)c21 + NC(=O)Nc1cc(-c2cccc(F)c2)sc1C(=O)N[C@H]1CCCNC1 [AZD7762] (partner 0.2 µM)
Procedure, shortened: as §1

| Cell Line | relative viability (BAM7 + Bortezomib; first compound 0.5 µM) | relative viability (BAM7 + Bortezomib; first compound 5 µM) | relative viability (BAM7 + Bortezomib; first compound 15.81 µM) | relative viability (BAM7 + Bortezomib; first compound 50 µM) | relative viability (BAM7 + Vorinostat; first compound 0.5 µM) | relative viability (BAM7 + Vorinostat; first compound 5 µM) | relative viability (BAM7 + Vorinostat; first compound 15.81 µM) | relative viability (BAM7 + Vorinostat; first compound 50 µM) | relative viability ([1]; first compound 0.01 µM) | relative viability ([1]; first compound 0.03162 µM) | relative viability ([1]; first compound 0.1 µM) | relative viability ([1]; first compound 0.3162 µM) | relative viability ([1]; first compound 1 µM) | relative viability ([2]; first compound 0.01 µM) | relative viability ([2]; first compound 0.03162 µM) | relative viability ([2]; first compound 0.1 µM) | relative viability ([2]; first compound 0.3162 µM) | relative viability ([2]; first compound 1 µM) |
| --- | --- | --- | --- | --- | --- | --- | --- | --- | --- | --- | --- | --- | --- | --- | --- | --- | --- | --- |
| HCC-44 | 1.01 | 0.921 | 0.879 | 0.838 | 1.02 | 1.11 | 1.04 | 1.07 | 0.19 | 0.183 | 0.194 | 0.184 | 0.189 | 1.03 | 0.946 | 0.997 | 1.12 | 1.08 |
| HCC-827 | 1.1 | 1.17 | 1.05 | 0.917 | 0.806 | 1 | 1.01 | 0.789 | 0.395 | 0.37 | 0.388 | 0.402 | 0.402 | 0.233 | 0.256 | 0.273 | 0.199 | 0.196 |
| NCI-H1623 | – | – | – | – | – | – | – | – | 0.604 | 0.526 | 0.6 | 0.56 | 0.473 | – | – | – | – | – |
| NCI-H2347 | 1 | 1.27 | 1.32 | 1.2 | 0.691 | 0.653 | 0.516 | 0.588 | 0.442 | 0.307 | – | 0.381 | 0.396 | 0.612 | 0.738 | 0.636 | 0.63 | 0.562 |
| PC-14 | 0.918 | 1.03 | 0.846 | 0.806 | 0.86 | 0.616 | 0.697 | 0.7 | 0.448 | 0.519 | 0.597 | 0.531 | 0.609 | 0.31 | 0.285 | 0.356 | 0.31 | 0.342 |
| NCI-H1651 | 0.992 | 0.917 | 0.988 | 0.926 | 0.543 | 0.59 | 0.661 | 0.612 | 0.353 | 0.387 | 0.382 | 0.28 | 0.337 | 0.401 | 0.472 | 0.454 | 0.447 | 0.337 |
| HARA | 1.14 | 1.26 | 1.09 | 1.14 | 0.333 | 0.767 | 0.304 | 0.439 | 0.361 | 0.445 | 0.426 | 0.451 | 0.495 | 0.269 | 0.629 | 0.485 | 0.156 | 0.299 |
| NCI-H1650 | 0.235 | 0.297 | 0.202 | 0.199 | 0.605 | 0.449 | 0.428 | 0.571 | 0.457 | 0.478 | 0.404 | 0.277 | 0.303 | – | – | – | – | – |
| NCI-H1395 | – | – | – | – | 0.662 | 0.678 | 0.645 | 0.939 | 0.417 | 0.416 | 0.418 | 0.376 | 0.388 | 0.379 | 0.329 | 0.433 | 0.368 | 0.389 |
| LU99A | 1.21 | 1.22 | 1.34 | 1.15 | 0.512 | 0.54 | 0.488 | 0.553 | 0.847 | 0.839 | 0.774 | 0.748 | 0.837 | 0.345 | 0.363 | 0.379 | 0.297 | 0.378 |
